Tests used:
Format in all cases: in vivo
[1] = test system: Kochia (Kochia scoparia); experiment: Test A preemergence; conditions: Bassia scoparia, pre-emergence, 240 h, 0 to 100 scale (0 no effect, 100 complete control), read-out: Plant response rating, Kochia
In short: (§1)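 Compounds were formulated in a non-phytotoxic solvent mixture with surfactant and applied as a preemergence directed soil spray after seeding, or sprayed postemergence over plants 2 to 10 cm tall at the one- to two-leaf stage. Evaluation after about 10 d compared treated with untreated controls, using a scale from 0 (no effect) to 100 (complete control).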

[2] = test system: barnyardgrass (Echinochloa crus-galli); experiment: Test A preemergence; conditions: Echinochloa crus-galli, pre-emergence, 240 h, 0 to 100 scale (0 no effect, 100 complete control), read-out: Plant response rating, Barnyardgrass
In short: as §1

[3] = test system: giant foxtail (Setaria faberii); experiment: Test A preemergence; conditions: Setaria faberi, pre-emergence, 240 h, 0 to 100 scale (0 no effect, 100 complete control), read-out: Plant response rating, Foxtail, Giant
In short: as §1

[4] = test system: pigweed (Amaranthus retroflexus); experiment: Test A preemergence; conditions: Amaranthus retroflexus, pre-emergence, 240 h, 0 to 100 scale (0 no effect, 100 complete control), read-out: Plant response rating, Pigweed
[5] = test system: ragweed (common ragweed, Ambrosia elatior); experiment: Test A preemergence; conditions: Ambrosia artemisiifolia, pre-emergence, 240 h, 0 to 100 scale (0 no effect, 100 complete control), read-out: Plant response rating, Ragweed
In short: as §1

[6] = test system: ryegrass, Italian (Italian ryegrass, Lolium multiflorum); experiment: Test A preemergence; conditions: Lolium multiflorum, pre-emergence, 240 h, 0 to 100 scale (0 no effect, 100 complete control), read-out: Plant response rating, Ryegrass, Italian
In short: as §1

[7] = test system: Galium (catchweed bedstraw, Galium aparine); experiment: Test A postemergence; conditions: Galium, post-emergence, 240 h, Postemergence, read-out: Plant response rating, Galium
In short: as §1

[8] = test system: Kochia (Kochia scoparia); experiment: Test A postemergence; conditions: Bassia scoparia, post-emergence, 240 h, Postemergence, read-out: Plant response rating, Kochia
In short: as §1

[9] = test system: barnyardgrass (Echinochloa crus-galli); experiment: Test A postemergence; conditions: Echinochloa crus-galli, post-emergence, 240 h, Postemergence, read-out: Plant response rating, Barnyardgrass
In short: as §1

[10] = test system: blackgrass (Alopecurus myosuroides); experiment: Test A postemergence; conditions: Alopecurus myosuroides, post-emergence, 240 h, Postemergence, read-out: Plant response rating, Blackgrass
In short: as §1

[11] = test system: corn (Zea mays); experiment: Test A postemergence; conditions: Zea mays, post-emergence, 240 h, Postemergence
In short: as §1

[12] = test system: giant foxtail (Setaria faberii); experiment: Test A postemergence; conditions: Setaria faberi, post-emergence, 240 h, Postemergence, read-out: Plant response rating, Foxtail, Giant
In short: as §1

[13] = test system: pigweed (Amaranthus retroflexus); experiment: Test A postemergence; conditions: Amaranthus retroflexus, post-emergence, 240 h, Postemergence, read-out: Plant response rating, Pigweed
In short: as §1

[14] = test system: ragweed (common ragweed, Ambrosia elatior); experiment: Test A postemergence; conditions: Ambrosia artemisiifolia, post-emergence, 240 h, Postemergence, read-out: Plant response rating, Ragweed
In short: as §1

[15] = test system: wheat (Triticum aestivum); experiment: Test A postemergence; conditions: Triticum aestivum, post-emergence, 240 h, Postemergence, read-out: Plant response rating, Wheat
In short: as §1

[16] = 125 g ai/ha, visual injury after approx. 10 d, 0 to 100 scale, 0 no effect, 100 complete control
[17] = 500 g ai/ha, visual injury, 0 to 100 scale (0 no effect, 100 complete control), approx. 10 d

O=C1NC[C@H](c2cncc(C(F)(F)F)c2)[C@H]1C(=O)Nc1cccc(F)c1F [Compound 1394]
70%: Corn plant response rating (crop injury, 0 = no effect, 100 = complete kill) at 500 g/ha [11, 17]
20%: pest or weed control at 125 g/ha ([5]; Preemergence, 125 g ai/ha) | pest or weed control at 500 g/ha [13, 17] | pest or weed control at 500 g/ha [14, 17]
0%: pest or weed control at 125 g/ha ([4]; Preemergence, 125 g ai/ha) | pest or weed control at 125 g/ha [8, 16] | pest or weed control at 500 g/ha [8, 17] | pest or weed control at 125 g/ha [10, 16] | pest or weed control at 125 g/ha [13, 16] | pest or weed control at 125 g/ha [14, 16] | plant injury at 125 g/ha [15, 16]
40%: pest or weed control at 125 g/ha ([1]; Preemergence, 125 g ai/ha) | Corn plant response rating (crop injury, 0 = no effect, 100 = complete kill) at 125 g/ha [11, 16]
30%: pest or weed control at 500 g/ha ([4]; 500 g ai/ha, preemergence)
90%: pest or weed control at 500 g/ha ([2]; 500 g ai/ha, preemergence) | pest or weed control at 125 g/ha ([2]; Preemergence, 125 g ai/ha) | pest or weed control at 500 g/ha ([3]; 500 g ai/ha, preemergence) | pest or weed control at 125 g/ha ([3]; Preemergence, 125 g ai/ha) | pest or weed control at 125 g/ha [9, 16] | pest or weed control at 500 g/ha [9, 17] | pest or weed control at 500 g/ha [12, 17]
60%: pest or weed control at 500 g/ha ([1]; 500 g ai/ha, preemergence) | pest or weed control at 500 g/ha ([6]; 500 g ai/ha, preemergence) | pest or weed control at 500 g/ha [7, 17] | pest or weed control at 500 g/ha [10, 17] | plant injury at 500 g/ha [15, 17]
80%: pest or weed control at 500 g/ha ([5]; 500 g ai/ha, preemergence) | pest or weed control at 125 g/ha [12, 16]
50%: pest or weed control at 125 g/ha ([6]; Preemergence, 125 g ai/ha) | pest or weed control at 125 g/ha [7, 16]

From patent US12077503B2, “Substituted cyclic amides and their use as herbicides” (FMC CORPORATION, priority 2015, dated 2024)
